The record followed here is patent US20260069571A1, “DDR1 AND DDR2 INHIBITORS FOR THE TREATEMENT OF CANCER AND FIBROTIC DISEASES” (REDX PHARMA PLC, priority 2021, published 2026).

One experiment concerns the target Recombinant human DDR1 (Homo sapiens (Human), UniProt Q08345). As to the kind of experiment: LanthaScreen Eu Kinase Binding Assay, DDR1. The following applies: DDR1 2.5 nM (aa440-876, GST tag), Kinase Tracer 178 5 nM; for IC50: read-out: DDR1 pIC50 (converted). As for the experimental part: (§1) DDR1 and DDR2 Biochemical Assay Method
(§2) The capacity of compounds to bind to DDR1 and DDR2 was quantified using a LanthaScreen Eu Kinase Binding Assay. Recombinant human DDR1 (2.5 nM; aa440-876 containing a GST tag) and DDR2 (1.75 nM; aa427-855 containing a GST tag) were diluted in assay buffer (50 mM HEPES pH7.3, 10 mM MgCl2, 1 mM EGTA and 0.01% Tween) with various concentrations of compound in a 384-well plate and a volume of 5 uL. After a 30-minute incubation at room temperature, 2.5 uL of Eu-anti GST antibody (diluted to 1 nM in assay buffer) plus Kinase Tracer 178 (diluted in assay buffer to 5 nM for DDR1 and 10 nM for DDR2) were added to the plate. Following 60-minute incubation at room temperature, time-resolved fluorescence was measured on a BMG Labtech PHERAstar plate reader. DMSO (1%) and reference compound (1 μM) were used to generate the Max and Min assay signals, respectively. Data was analysed using a four-parameter logistic model to calculate IC50 values, with at least two independent replicates were performed for each compound.

The target of the next experiment is Recombinant human DDR2 (Homo sapiens (Human), UniProt Q16832). As to the kind of experiment: LanthaScreen Eu Kinase Binding Assay, DDR2. The following applies: DDR2 1.75 nM (aa427-855, GST tag), Kinase Tracer 178 10 nM; for IC50: read-out: DDR2 pIC50 (converted). The method, then: as §1, §2
Sequence of Recombinant human DDR2 (Q16832 427-855): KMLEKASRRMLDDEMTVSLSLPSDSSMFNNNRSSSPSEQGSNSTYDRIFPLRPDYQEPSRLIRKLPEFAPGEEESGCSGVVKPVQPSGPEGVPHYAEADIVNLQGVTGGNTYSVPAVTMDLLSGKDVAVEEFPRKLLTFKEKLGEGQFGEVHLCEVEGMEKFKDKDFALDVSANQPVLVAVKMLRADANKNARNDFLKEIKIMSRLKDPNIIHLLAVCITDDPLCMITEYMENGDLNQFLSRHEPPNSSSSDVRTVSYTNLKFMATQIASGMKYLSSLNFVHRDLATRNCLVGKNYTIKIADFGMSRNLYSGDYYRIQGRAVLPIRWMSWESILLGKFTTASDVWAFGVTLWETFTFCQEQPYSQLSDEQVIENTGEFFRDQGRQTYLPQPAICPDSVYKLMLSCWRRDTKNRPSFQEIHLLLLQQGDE

Molecules are shown by their SMILES. Some results are limits rather than exact numbers.

Sequence of Recombinant human DDR1 (Q08345 other isoform, or with tags, fused parts or gaps): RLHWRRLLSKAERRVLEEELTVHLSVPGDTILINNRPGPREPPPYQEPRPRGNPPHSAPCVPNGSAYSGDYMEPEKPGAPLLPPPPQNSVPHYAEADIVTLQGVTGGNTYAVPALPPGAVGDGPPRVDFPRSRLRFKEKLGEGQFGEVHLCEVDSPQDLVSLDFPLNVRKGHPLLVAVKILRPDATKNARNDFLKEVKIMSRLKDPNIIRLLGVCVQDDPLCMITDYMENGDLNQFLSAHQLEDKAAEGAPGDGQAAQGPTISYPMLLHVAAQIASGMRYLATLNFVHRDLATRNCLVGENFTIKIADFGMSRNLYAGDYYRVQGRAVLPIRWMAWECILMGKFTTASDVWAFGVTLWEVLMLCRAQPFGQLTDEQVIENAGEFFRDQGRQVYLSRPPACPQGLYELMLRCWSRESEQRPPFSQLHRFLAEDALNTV

On to `Cn1ncc2cc(Nc3cccc4c3C(=O)N(CC(=O)NCC(F)(F)F)C4)ccc21` [Example 1, 2-[7-[(1-Methylindazol-5-yl)amino]-1-oxo-isoindolin-2-yl]-N-(2,2,2-trifluoroethyl) acetamide], for which the IC50 on Recombinant human DDR1 is < 10 nM; on Recombinant human DDR2, 10 to 100 nM.

Regarding `C[C@H](NC(=O)CN1Cc2cccc(Nc3ccc4c(cnn4C)c3)c2C1=O)C(F)(F)F` [Example 2, 2-[7-[(1-Methylindazol-5-yl)amino]-1-oxo-isoindolin-2-yl]-N-[(1S)-2,2,2-trifluoro-1-methyl-ethyl]acetamide], the “DDR1 pIC50” value at Recombinant human DDR1 is listed as “A (pIC50>8)”. The “DDR2 pIC50” value at Recombinant human DDR2 is on record as “A (pIC50>8)”.

As for `Cn1ncc2cc(Nc3cccc4c3C(=O)N(CC(=O)N3CCC[C@H]3C(F)(F)F)C4)ccc21` [Example 3, 7-[(1-Methylindazol-5-yl)amino]-2-[2-oxo-2-[(2S)-2-(trifluoromethyl)pyrrolidin-1-yl]ethyl]isoindolin-1-one], the IC50 at Recombinant human DDR1 and at Recombinant human DDR2 was < 10 nM throughout.

For the compound `Cn1ncc2cc(Nc3cccc4c3C(=O)N(CC(=O)Nc3cnoc3)C4)ccc21` [Example 4, N-isoxazol-4-yl-2-[7-[(1-methylindazol-5-yl)amino]-1-oxo-isoindolin-2-yl]acetamide], at Recombinant human DDR1, the “DDR1 pIC50” value was “A (pIC50>8)”. Moreover, at Recombinant human DDR2, the “DDR2 pIC50” value is given as “A (pIC50>8)”.

Take `Cn1ncc2cc(Nc3cccc4c3C(=O)N(CC(=O)Nc3cccc(C(F)(F)F)c3)C4)ccc21` [Example 5, 2-{7-[(1-methyl-1H-indazol-5-yl)amino]-1-oxo-2,3-dihydro-1H-isoindol-2-yl}-N-[3-(trifluoromethyl)phenyl]acetamide]: the “DDR1 pIC50” value on Recombinant human DDR1 is listed as “A (pIC50>8)”. Further, the IC50 at Recombinant human DDR2 is 10 to 100 nM.

In the case of `Cn1ncc2cc(Nc3cccc4c3C(=O)N(CC(=O)NCC(F)(F)F)C4(C)C)ccc21` [Example 7, 2-[1,1-dimethyl-4-[(1-methylindazol-5-yl)amino]-3-oxo-isoindolin-2-yl]-N-(2,2,2-trifluoroethyl)acetamide], the IC50 on Recombinant human DDR1 was 100 to 1000 nM. For the same compound, the “DDR2 pIC50” value at Recombinant human DDR2 is reported as “D (pIC50≤6)”.

As for `CN(c1ccc2c(cnn2C)c1)c1cccc2c1C(=O)N(CC(=O)NCC(F)(F)F)C2` [Example 8, 2-[7-[methyl-(1-methylindazol-5-yl)amino]-1-oxo-isoindolin-2-yl]-N-(2,2,2-trifluoroethyl)acetamide], the IC50 on Recombinant human DDR1 and on Recombinant human DDR2 was 10 to 100 nM each time.

As for `Cn1ncc2cc(Nc3cccc4c3C(=O)N(CC(=O)NCC(F)(F)F)C4)cnc21` [Example 9, 2-[7-[(1-methylpyrazolo[3,4-b]pyridin-5-yl)amino]-1-oxo-isoindolin-2-yl]-N-(2,2,2-trifluoroethyl)acetamide], the values for the IC50 at Recombinant human DDR1 and at Recombinant human DDR2 were 10 to 100 nM and 100 to 1000 nM, respectively.

In the case of `Cn1ncc2cc(Nc3cccc4c3C(=O)N(CC(=O)Nc3cccc(C(C)(C)O)c3)C4)ccc21` [Example 10, N-[3-(1-hydroxy-1-methyl-ethyl)phenyl]-2-[7-[(1-methylindazol-5-yl)amino]-1-oxo-isoindolin-2-yl]acetamide], the “DDR1 pIC50” value on Recombinant human DDR1 is reported as “A (pIC50>8)”. At Recombinant human DDR2, the IC50 was 10 to 100 nM.

Take `Cc1cc(Nc2cccc3c2C(=O)N(CC(=O)NCC(F)(F)F)C3)cc2cn[nH]c12` [Example 11, 2-[7-[(7-methyl-1H-indazol-5-yl)amino]-1-oxo-isoindolin-2-yl]-N-(2,2,2-trifluoroethyl)acetamide]: the “DDR1 pIC50” value at Recombinant human DDR1 is “A (pIC50>8)”. Also, on Recombinant human DDR2, the “DDR2 pIC50” value is on record as “A (pIC50>8)”.

On to `Cn1ncc2cc(Nc3cccc4c3C(=O)N(CC(=O)N3CCCC(C(F)(F)F)C3)C4)ccc21` (centres unmarked) [Example 12], for which the IC50 on Recombinant human DDR2 was 10 to 100 nM.

For the compound `CN(C)Cc1ccc(NC(=O)CN2Cc3cccc(Nc4ccc5c(cnn5C)c4)c3C2=O)cc1C(F)(F)F` [Example 13, N-[4-[(dimethylamino)methyl]-3-(trifluoromethyl)phenyl]-2-[7-[(1-methylindazol-5-yl)amino]-1-oxo-isoindolin-2-yl]acetamide], the “DDR1 pIC50” value at Recombinant human DDR1 was “A (pIC50>8)”. The IC50 at Recombinant human DDR2 is 10 to 100 nM.

With `Cn1ncc2cc(Nc3cccc4c3C(=O)N(CC(=O)N3CCCC[C@H]3C(F)(F)F)C4)ccc21` [Example 14, 7-[(1-methylindazol-5-yl)amino]-2-[2-oxo-2-[(2S)-(trifluoromethyl)-1-piperidyl]ethyl]isoindolin-1-one], the IC50 on Recombinant human DDR1 and at Recombinant human DDR2 was < 10 nM each time.

Regarding `CC1c2cccc(Nc3ccc4c(cnn4C)c3)c2C(=O)N1CC(=O)NCC(F)(F)F` (centres unmarked) [Example 15, 2-[1-methyl-4-[(1-methylindazol-5-yl)amino]-3-oxo-isoindolin-2-yl]-N-(2,2,2-trifluoroethyl)acetamide], the IC50 on Recombinant human DDR1 and at Recombinant human DDR2 was 10 to 100 nM each time.

With `Cn1ncc2cc(Nc3cccc4c3C(=O)N(CC(=O)N3CCC[C@H]3C(F)F)C4)ccc21` [Example 16, 2-[2-[(2S)-(difluoromethyl)pyrrolidin-1-yl]-2-oxo-ethyl]-7-[(1-methylindazol-5-yl)amino]isoindolin-1-one], the IC50 at Recombinant human DDR1 and at Recombinant human DDR2 was < 10 nM each time.

For `Cn1ncc2cc(Nc3cccc4c3C(=O)N(CC(=O)N3CC(C(F)(F)F)C3)C4)ccc21` [Example 18, 7-[(1-methylindazol-5-yl)amino]-2-[2-oxo-2-[3-(trifluoromethyl)73zetidine-1-yl]ethyl]isoindolin-1-one], the IC50 is 10 to 100 nM on Recombinant human DDR1 and 100 to 1000 nM on Recombinant human DDR2.

Turning to `Cn1ncc2cc(Nc3cccc4c3C(=O)N(CC(=O)N3CC(F)(F)C3)C4)ccc21` [Example 19, 2-[2-(3,3-difluoroazetidin-1-yl)-2-oxo-ethyl]-7-[(1-methylindazol-5-yl)amino]isoindolin-1-one], the IC50 on Recombinant human DDR1 and at Recombinant human DDR2 was 100 to 1000 nM each time.

As to `CN(C)Cc1cc(NC(=O)CN2Cc3cccc(Nc4ccc5c(cnn5C)c4)c3C2=O)cc(C(F)(F)F)c1` [Example 20, N-[3-[(dimethylamino)methyl]-5-(trifluoromethyl)phenyl]-2-[7-[(1-methylindazol-5-yl)amino]-1-oxo-isoindolin-2-yl]acetamide], the “DDR1 pIC50” value on Recombinant human DDR1 was “A (pIC50>8)”. Also, the IC50 on Recombinant human DDR2 is 10 to 100 nM.

Turning to `O=C(CN1Cc2cccc(Nc3ccc4[nH]ncc4c3)c2C1=O)NCC(F)(F)F` [Example 21, 2-[7-(1H-indazol-5-ylamino)-1-oxo-isoindolin-2-yl]-N-(2,2,2-trifluoroethyl)acetamide], the “DDR1 pIC50” value on Recombinant human DDR1 was “A (pIC50>8)”. On Recombinant human DDR2, the IC50 was 10 to 100 nM.

Regarding `O=C(CN1Cc2cccc(Nc3cnc4[nH]ncc4c3)c2C1=O)NCC(F)(F)F` [Example 22, 2-[1-oxo-7-(1H-pyrazolo[3,4-b]pyridin-5-ylamino)isoindolin-2-yl]-N-(2,2,2-trifluoroethyl)acetamide], the IC50 on Recombinant human DDR1 was 10 to 100 nM. Also, on Recombinant human DDR2, the “DDR2 pIC50” value is on record as “D (pIC50≤6)”.

With `Cn1ncc2cc(Nc3cccc4c3C(=O)N(CC(=O)Nc3cccc(C(C)(C)N)c3)C4)ccc21` [Example 23, N-[3-(1-amino-1-methyl-ethyl)phenyl]-2-[7-[(1-methylindazol-5-yl)amino]-1-oxo-isoindolin-2-yl]acetamide], the IC50 at Recombinant human DDR1 and on Recombinant human DDR2 was 10 to 100 nM each time.

In the case of `Cn1ncc2cc(Nc3cccc4c3C(=O)N(CC(=O)NC3CC3(F)F)C4)ccc21` (centres unmarked) [Example 24, N-(2,2-difluorocyclopropyl)-2-[7-[(1-methylindazol-5-yl)amino]-1-oxo-isoindolin-2-yl]acetamide], on Recombinant human DDR1, the “DDR1 pIC50” value is reported as “A (pIC50>8)”. Further, the IC50 on Recombinant human DDR2 is 10 to 100 nM.

`Cn1ncc2cc(Nc3cccc4c3C(=O)N(CC(=O)N3CCOC(C(F)(F)F)C3)C4)ccc21` (centres unmarked) [Example 26, 7-[(1-methylindazol-5-yl)amino]-2-[2-oxo-2-[2-(trifluoromethyl)morpholin-4-yl]ethyl]isoindolin-1-one]: the IC50 on Recombinant human DDR1 and on Recombinant human DDR2 was 10 to 100 nM in each case.

`Cn1ncc2cc(Nc3cccc4c3C(=O)N(CC(=O)NCC(F)(F)F)C4)cc(Cl)c21` [Example 27, 2-[7-[(7-chloro-1-methyl-indazol-5-yl)amino]-1-oxo-isoindolin-2-yl]-N-(2,2,2-trifluoroethyl)acetamide]: the “DDR1 pIC50” value at Recombinant human DDR1 was “A (pIC50>8)”. The “DDR2 pIC50” value at Recombinant human DDR2 is listed as “A (pIC50>8)”.

Turning to `Cc1n[nH]c2cc(Nc3cccc4c3C(=O)N(CC(=O)N[C@@H](C)C(F)(F)F)C4)ccc12` [Example 28, 2-[7-[(3-methyl-1H-indazol-6-yl)amino]-1-oxo-isoindolin-2-yl]-N-[(1S)-2,2,2-trifluoro-1-methyl-ethyl]acetamide], the “DDR1 pIC50” value at Recombinant human DDR1 is recorded as “A (pIC50>8)”. Further, the “DDR2 pIC50” value on Recombinant human DDR2 is on record as “A (pIC50>8)”.

Take `Cc1n[nH]c2cc(Nc3cccc4c3C(=O)N(CC(=O)NCC(F)(F)F)C4)cc(Cl)c12` [Example 91, 2-[7-[(4-chloro-3-methyl-1H-indazol-6-yl)amino]-1-oxo-isoindolin-2-yl]-N-(2,2,2-trifluoroethyl)acetamide]: the IC50 at Recombinant human DDR1 was 10 to 100 nM.
